Where two headings read alike, the source gives them in different places.
What was measured:
[1] = test system: luciferase expression in the liver; test: In vivo luciferase mRNA expression rodent model (liver luciferase after tail vein injection of FLuc mRNA lipid nanoparticles); set-up: species or system mice; settings: liver 4 hours after administration, FLuc mRNA (L-6107) LNP 50% cationic lipid/10% DSPC/38.5% cholesterol/1.5% PEG-DMG; for Liver Luc @ 0.3 mg/kg dose: 0.3 mg mRNA/kg; for Liver Luc @ 1.0 mg/kg dose: 1.0 mg mRNA/kg
Experimental: Lipid nanoparticles were prepared and tested according to the general procedures described in PCT Pub. Nos. WO 2015/199952 and WO 2017/004143, the full disclosures of which are incorporated herein by reference. Briefly, cationic lipid, DSPC, cholesterol and PEG-lipid were solubilized in ethanol at a molar ratio of about 50:10:38.5:1.5 or about 47.5:10:40.8:1.7. Lipid nanoparticles (LNP) were prepared at a total lipid to mRNA weight ratio of approximately 10:1 to 30:1. The mRNA is diluted to 0.2 mg/mL in 10 to 50 mM citrate or acetate buffer, pH 4. Syringe pumps were used to mix the ethanolic lipid solution with the mRNA aqueous solution at a ratio of about 1:5 to 1:3 (vol/vol) with total flow rates above 15 mL/min. The ethanol was then removed and the external buffer replaced with PBS by dialysis. Finally, the lipid nanoparticles were filtered through a 0.2 µm pore sterile filter. Lipid nanoparticle particle size was approximately 55-95 nm diameter, and in some instances approximately 70-90 nm diameter as determined by quasi-elastic light scattering using a Malvern Zetasizer Nano ZS (Malvern, UK).
Studies were performed in 6-8 week old female C57BL/6 mice (Charles River) or 8-10 week old CD-1 (Harlan) mice (Charles River) according to guidelines established by an institutional animal care committee (ACC) and the Canadian Council on Animal Care (CCAC). Varying doses of mRNA-lipid nanoparticle were systemically administered by tail vein injection and animals euthanized at a specific time point (e.g., 4 hours) post-administration. Liver and spleen were collected in pre-weighed tubes, weights determined, immediately snap frozen in liquid nitrogen and stored at -80° C. until processing for analysis.
For liver, approximately 50 mg was dissected for analyses in a 2 mL FastPrep tubes (MP Biomedicals, Solon OH). ¼” ceramic sphere (MP Biomedicals) is added to each tube and 500 µL of Glo Lysis Buffer - GLB (Promega, Madison Wl) equilibrated to room temperature is added to liver tissue. Liver tissues were homogenized with the FastPrep24 instrument (MP Biomedicals) at 2 × 6.0 m/s for 15 seconds. Homogenate was incubated at room temperature for 5 minutes prior to a 1:4 dilution in GLB and assessed using SteadyGlo Luciferase assay system (Promega). Specifically, 50 µL of diluted tissue homogenate was reacted with 50 µL of SteadyGlo substrate, shaken for 10 seconds followed by 5 minute incubation and then quantitated using a CentroXS^3 LB 960 luminometer (Berthold Technologies, Germany). The amount of protein assayed was determined by using the BCA protein assay kit (Pierce, Rockford IL). Relative luminescence units (RLU) were then normalized to total µg protein assayed. To convert RLU to ng luciferase a standard curve was generated with QuantiLum Recombinant Luciferase (Promega).
The FLuc mRNA (L-6107 or L-7202) from Trilink Biotechnologies will express a luciferase protein, originally isolated from the firefly, photinus pyralis. FLuc is commonly used in mammalian cell culture to measure both gene expression and cell viability. It emits bioluminescence in the presence of the substrate, luciferin. This capped and poly-adenylated mRNA was fully substituted with respect to uridine and/or cytidine nucleosides.
The cationic lipids shown in Table 2 have previously been tested with nucleic acids. For comparative purposes, these lipids were also used to formulate lipid nanoparticles containing the FLuc mRNA (L-6107) using an in line mixing method, as described in Example 1 and in PCT/US10/22614, which is hereby incorporated by reference in its entirety. Lipid nanoparticles were formulated using the following molar ratio: 50% Cationic lipid / 10% distearoylphosphatidylcholine (DSPC) / 38.5% Cholesterol / 1.5% PEG lipid (“PEG-DMG”, i.e., 1-(monomethoxy-polyethyleneglycol)-2,3-dimyristoylglycerol, with an average PEG molecular weight of 2000). […]

[2] = test system: luciferase expression in the liver; test: as above; set-up: species or system mice; settings: 0.5 mg mRNA/kg, liver 4 hours after administration, LNP 50% cationic lipid/10% DSPC/38.5% cholesterol/1.5% PEG-DMA or 47.5/10/40.7/1.8
[3] = Determination of pKa of formulated lipids (TNS fluorescence assay in lipid nanoparticles); type: physicochemical
Experimental: As described elsewhere, the pKa of formulated cationic lipids is correlated with the effectiveness of LNPs for delivery of nucleic acids (see Jayaraman et al, Angewandte Chemie, International Edition (2012), 51(34), 8529-8533; Semple et al, Nature Biotechnology 28, 172-176 (2010)). […] Lipid nanoparticles comprising cationic lipid/DSPC/cholesterol/PEG-lipid (50/10/38.5/1.5 mol%) in PBS at a concentration of 0.4 mM total lipid were prepared using the in-line process as described in Example 1. TNS was prepared as a 100 µM stock solution in distilled water. Vesicles were diluted to 24 µM lipid in 2 mL of buffered solutions containing, 10 mM HEPES, 10 mM MES, 10 mM ammonium acetate, 130 mM NaCl, where the pH ranged from 2.5 to 11. An aliquot of the TNS solution was added to give a final concentration of 1 µM and following vortex mixing fluorescence intensity was measured at room temperature in a SLM Aminco Series 2 Luminescence Spectrophotometer using excitation and emission wavelengths of 321 nm and 445 nm. A sigmoidal best fit analysis was applied to the fluorescence data and the pKa was measured as the pH giving rise to half-maximal fluorescence intensity.

[4] = Table 3, cationic lipid formulated in LNP, TNS fluorescence assay, read-out: pKa

Compound | Liver Luc @ 0.3 mg/kg dose [1] [ng luciferase/g liver] | Liver Luc @ 1.0 mg/kg dose [1] [ng luciferase/g liver] | Liver Luc @ 0.5 mg/kg (ng luc/g liver) [2] [ng luc/g liver] | further results
CCCCCC/C=C\COC(=O)CCCCCCCC(CCCCCCCC(=O)OC/C=C\CCCCCC)OC(=O)CCCN(C)C [319 (2% PEG)] | 258 ± 67 | 681 ± 203 | – | –
CCCCC/C=C\C/C=C\CCCCCCCCN(CCCCCCCC/C=C\C/C=C\CCCCC)CCN(C)C [A] | 77 ± 40 | 203 ± 122 | – | –
CCCCC(CC)C(=O)OCCCCCCCCCC(CCCCCCCCCOC(=O)C(CC)CCCC)OC(=O)CCCN(C)C (centres unmarked) [Compound 137] | 281 ± 203 | 588 ± 303 | – | –
CCCCCCCCCCN(C(=O)CCCCN(C)C)C(CCCCCCCCC(=O)OCC(CCCC)CCCCCC)CCCCCCCCC(=O)OCC(CCCC)CCCCCC (centres unmarked) [Compound I-7, BIS(2-BUTYLOCTYL) 10-(N-DECYL-5-(DIMETHYLAMINO)PENTANAMIDO)NONADECANEDIOATE] | – | – | 2420 ± 1079 | –
CCCCCCCCCCN(C(=O)CCCCN(CC)CC)C(CCCCCCCCC(=O)OCC(CCCC)CCCCCC)CCCCCCCCC(=O)OCC(CCCC)CCCCCC (centres unmarked) [Compound I-8, BIS(2-BUTYLOCTYL) 10-(N-DECYL-5-(DIETHYLAMINO)PENTANAMIDO)NONADECANEDIOATE] | – | – | 7384 ± 1916 | –
CCCCCCCCCCN(C(=O)CCCCN1CCCC1)C(CCCCCCCCC(=O)OCC(CCCC)CCCCCC)CCCCCCCCC(=O)OCC(CCCC)CCCCCC (centres unmarked) [Compound I-9, BIS(2-BUTYLOCTYL) 10-(N-DECYL-5-(PYRROLIDIN-1-YL)PENTANAMIDO)NONADECANEDIOATE] | – | – | 2223 ± 777 | –
CCCCCCCCCCN(C(=O)CCCN(C)C)C(CCCCCC(=O)OCC(CCCCCC)CCCCCCCC)CCCCCC(=O)OCC(CCCCCC)CCCCCCCC (centres unmarked) [Compound I-16, BIS(2-HEXYLDECYL) 7-(N-DECYL-4-(DIMETHYLAMINO)BUTANAMIDO)TRIDECANEDIOATE] | – | – | 4678 ± 1243 | –
CCCCCCCCCCN(C(=O)CCCN(C)C)C(CCCCCCCCC(=O)OCC(CCCC)CCCCCC)CCCCCCCCC(=O)OCC(CCCC)CCCCCC (centres unmarked) [Compound I-18, BIS(2-BUTYLOCTYL) 10-(N-DECYL-4-(DIMETHYLAMINO)BUTANAMIDO)NONADECANEDIOATE] | – | – | 13301 ± 8071 | –
CCCCCCCCCCN(C(=O)CCCN1CCCC1)C(CCCCCC(=O)OCC(CCCCCC)CCCCCCCC)CCCCCC(=O)OCC(CCCCCC)CCCCCCCC (centres unmarked) [Compound I-29, BIS(2-HEXYLDECYL) 7-(N-DECYL-4-(PYRROLIDIN-1-YL)BUTANAMIDO)TRIDECANEDIOATE] | – | – | 5551 ± 1650 | –
CCCCCCC(CCCC)COC(=O)CCCCCCCCC(CCCCCCCCC(=O)OCC(CCCC)CCCCCC)N(CC(CC)CCCC)C(=O)CCCN(C)C (centres unmarked) [Compound I-30, BIS(2-BUTYLOCTYL) 10-(4-(DIMETHYLAMINO)-N-(2-ETHYLHEXYL)BUTANAMIDO)NONADECANEDIOATE] | – | – | 13614 ± 3348 | pKa ([3]; Table 1, cationic lipid formulated in LNP (cationic lipid/DSPC/cholesterol/PEG-lipid 50/10/38.5/1.5 mol%), TNS fluorescence, pH giving half-maximal fluorescence): 6.47; pKa ([3]; Table 3, cationic lipid formulated in LNP, TNS fluorescence assay): 6.47
CCCCCCCCCCN(C(=O)CCCN(C)C)C(CCCCCCCCCOC(=O)C(CCCC)CCCCCC)CCCCCCCCCOC(=O)C(CCCC)CCCCCC (centres unmarked) [Compound I-32, 10-(4-(DIMETHYLAMINO)-N-DECYLBUTANAMIDO)NONADECANE-1,19-DIYL BIS(2-BUTYLOCTANOATE)] | – | – | 4091 ± 713 | pKa ([3]; Table 1, cationic lipid formulated in LNP (cationic lipid/DSPC/cholesterol/PEG-lipid 50/10/38.5/1.5 mol%), TNS fluorescence, pH giving half-maximal fluorescence, read-out: pKa): 6.41
CCCCCCCCCCN(C(=O)CCN1CCCC1)C(CCCCCCCCC(=O)OCC(CCCC)CCCCCC)CCCCCCCCC(=O)OCC(CCCC)CCCCCC (centres unmarked) [Compound I-33, BIS(2-BUTYLOCTYL) 10-(N-DECYL-3-(PYRROLIDIN-1-YL)PROPANAMIDO)NONADECANEDIOATE] | – | – | 1304 ± 278 | –
CCCCCCCCCCN(C(=O)CCN(C)C)C(CCCCCC(=O)OCC(CCCCCC)CCCCCCCC)CCCCCC(=O)OCC(CCCCCC)CCCCCCCC (centres unmarked) [Compound I-35, BIS(2-HEXYLDECYL) 7-(N-DECYL-3-(DIMETHYLAMINO)PROPANAMIDO)TRIDECANEDIOATE] | – | – | 14312 ± 4174 | pKa [3, 4]: 6.39
CCCCCCCCC(CCCCCC)COC(=O)CCCCCC(CCCCCC(=O)OCC(CCCCCC)CCCCCCCC)N(CCCCCC(=O)OCC(CC)CCCC)C(=O)CCN(C)C (centres unmarked) [Compound I-36, BIS(2-HEXYLDECYL) 7-(3-(DIMETHYLAMINO)-N-(6-((2-ETHYLHEXYL)OXY)-6-OXOHEXYL)PROPANAMIDO)TRIDECANEDIOATE] | – | – | 10377 ± 1435 | pKa [3, 4]: 6.55
CCCCC/C=C\C/C=C\CCCCCCCCOCC(CN(C)C)OCCCCCCCC/C=C\C/C=C\CCCCC (centres unmarked) [DLinDMA] | 13 ± 3 | 67 ± 20 | – | –
CCCCC/C=C\C/C=C\CCCCCCCCC(CCCCCCCC/C=C\C/C=C\CCCCC)OC(=O)CCN(C)C [MC2] | 4 ± 1 | – | – | –
CCCCC/C=C\C/C=C\CCCCCCCCC(CCCCCCCC/C=C\C/C=C\CCCCC)OC(=O)CCCN(C)C [MC3] | – | 757 ± 528 | – | –
CCCCC/C=C\C/C=C\CCCCCCCCC(CCCCCCCC/C=C\C/C=C\CCCCC)OC(=O)CCCCN(C)C [MC4] | 41 ± 10 | – | – | –
CCCCC/C=C\C/C=C\CCCCCCCCC1(CCCCCCCC/C=C\C/C=C\CCCCC)OC[C@@H](CCN(C)C)O1 [XTC2] | 80 ± 28 | 237 ± 99 | – | –

From patent US20230123534A1, “LIPIDS FOR LIPID NANOPARTICLE DELIVERY OF ACTIVE AGENTS” (Acuitas Therapeutics, Inc., priority 2019, published 2023)
